Laboratory results: patent US20110268842A1 (SIGMA ALIMENTOS, S.A. DE C.V., priority 2008, published 2011)

Test system: homocysteine concentration in the blood
Assay: not given
Details: 400 μg/day; cited from earlier work

| Compound | effect on homocysteine concentration in the blood |
| --- | --- |
| Nc1nc2ncc(CNc3ccc(C(=O)N[C@@H](CCC(=O)O)C(=O)O)cc3)nc2c(=O)[nH]1 [folic acid] | decrease the levels of homocysteine concentration in the blood |

Test system: not given
Assay: not given
Details: supplements before conception; cited from earlier work

| Compound | reduction of the risks of neurological defects in the future child [%] |
| --- | --- |
| Nc1nc2ncc(CNc3ccc(C(=O)N[C@@H](CCC(=O)O)C(=O)O)cc3)nc2c(=O)[nH]1 [folic acid] | 50 |

Test system: Bifidobacterium animalis PTA-9175
Assay: Determination of resistance patterns (Kirby-Bauer, inhibition halos)
Type: cell-based
Details: sensidiscs on Mueller-Hinton agar; diameter 0 = resistant
Description: Method: To determine the phenotype of resistance to antibiotics the Kirby-Bauer method was used. From a young culture of 18 to 24 hours several colonies were taken with a sterile swab and inoculated into a test tube with a sterile, isotonic saline solution. The inoculum was visually adjusted to a turbidity of 0.5 on the McFarland scale. Within 15 minutes the inoculum was adjusted, a sterile swab was introduced into the suspension and when removing it the excess liquid was eliminated. Agar Mueller-Hinton plates were inoculated, leaving no free zone, sliding the swab across the surface of the agar 3 times, rotating the plate 60° each time and finally passing it over the periphery of the agar to achieve a uniform seed.
The plates were left to dry for 3 to 5 min and the sensidiscs of the following antibiotics were placed: norfloxacin, cephalothin, azithromycin, tobramycin, ampicillin/sulbactam, erythromycin cefatoxim, nalidixic acid, ceftazidime, aztreonam, vancomycin, cefuroxime, rifampicyn, nitrofurantoin, oxacylin, nefilmicin amikacin, kanamycin ticarcillin, clindamycin, ampicillin.
All strains with an inhibition diameter of 0 are resistant to the tested antibiotic.

| Compound | Inhibition halo (mm) |
| --- | --- |
| CC(C)(O/N=C(\C(=O)N[C@@H]1C(=O)N2C(C(=O)[O-])=C(C[n+]3ccccc3)CS[C@H]12)c1csc(N)n1)C(=O)O [Ceftazidime] | 38 |
| NCC[C@H](O)C(=O)N[C@@H]1C[C@H](N)[C@@H](O[C@H]2O[C@H](CN)[C@@H](O)[C@H](O)[C@H]2O)[C@H](O)[C@H]1O[C@H]1O[C@H](CO)[C@@H](O)[C@H](N)[C@H]1O [Amikacin] | 0 |
| CC[C@H]1OC(=O)[C@H](C)[C@@H](O[C@H]2C[C@@](C)(OC)[C@@H](O)[C@H](C)O2)[C@H](C)[C@@H](O[C@@H]2O[C@H](C)C[C@H](N(C)C)[C@H]2O)[C@](C)(O)C[C@@H](C)CN(C)[C@H](C)[C@@H](O)[C@]1(C)O [Azithromycin] | 30 |
| Nefilmicin | 0 |
| CCC[C@@H]1C[C@@H](C(=O)N[C@@H]([C@H]2O[C@H](SC)[C@H](O)[C@@H](O)[C@H]2O)[C@H](C)Cl)N(C)C1 [Clindamycin] | 43 |
| CC[C@H]1OC(=O)[C@H](C)[C@@H](O[C@H]2C[C@@](C)(OC)[C@@H](O)[C@H](C)O2)[C@H](C)[C@@H](O[C@@H]2O[C@H](C)C[C@H](N(C)C)[C@H]2O)[C@](C)(O)C[C@@H](C)C(=O)[C@H](C)[C@@H](O)[C@]1(C)O [Erythromycin] | 40 |
| CO/N=C(\C(=O)N[C@@H]1C(=O)N2C(C(=O)O)=C(COC(C)=O)CS[C@H]12)c1csc(N)n1 [Cefatoxim] | 40 |
| NC[C@H]1O[C@H](O[C@H]2[C@H](O)[C@@H](O[C@H]3O[C@H](CO)[C@@H](O)[C@H](N)[C@H]3O)[C@H](N)C[C@@H]2N)[C@H](O)[C@@H](O)[C@@H]1O [Kanamycin] | 0 |
| CN[C@H](CC(C)C)C(=O)N[C@H]1C(=O)N[C@@H](CC(N)=O)C(=O)N[C@H]2C(=O)N[C@H]3C(=O)N[C@H](C(=O)N[C@H](C(=O)O)c4cc(O)cc(O)c4-c4cc3ccc4O)[C@H](O)c3ccc(c(Cl)c3)Oc3cc2cc(c3O[C@@H]2O[C@H](CO)[C@@H](O)[C@H](O)[C@H]2O[C@H]2C[C@](C)(N)[C@H](O)[C@H](C)O2)Oc2ccc(cc2Cl)[C@H]1O [Vancomycin] | 27 |
| CCn1cc(C(=O)O)c(=O)c2cc(F)c(N3CCNCC3)cc21 [Norfloxacin] | 0 |
| Cc1onc(-c2ccccc2)c1C(=O)N[C@@H]1C(=O)N2[C@@H]1SC(C)(C)[C@@H]2C(=O)O [Oxacylin] | 0 |
| CC1(C)S[C@@H]2[C@H](NC(=O)[C@H](N)c3ccccc3)C(=O)N2[C@H]1C(=O)O [Ampicillin] | 35 |
| Rifampicyn | 2 |
| CC1(C)S[C@@H]2[C@H](NC(=O)[C@H](C(=O)O)c3ccsc3)C(=O)N2[C@H]1C(=O)O [Ticarcillin] | 40 |
| CCn1cc(C(=O)O)c(=O)c2ccc(C)nc21 [Nalidixic acid] | 0 |
| CO/N=C(\C(=O)N[C@@H]1C(=O)N2C(C(=O)O)=C(COC(N)=O)CS[C@H]12)c1ccco1 [Cefuroxime] | 25 |
| O=C1CN(/N=C/c2ccc([N+](=O)[O-])o2)C(=O)N1 [Nitrofurantoin] | 40 |
| CC1COc2c(N3CCN(C)CC3)c(F)cc3c(=O)c(C(=O)O)cn1c23 (stereo not drawn) [Ofloxacin] | 12 |
| Ampicillin/Sulbactam | 30 |
| NC[C@H]1O[C@H](O[C@H]2[C@H](O)[C@@H](O[C@H]3O[C@H](CO)[C@@H](O)[C@H](N)[C@H]3O)[C@H](N)C[C@@H]2N)[C@H](N)C[C@@H]1O [Tobramycin] | 0 |
| C[C@H]1[C@H](NC(=O)/C(=N\OC(C)(C)C(=O)O)c2csc(N)n2)C(=O)N1S(=O)(=O)O [Aztreonam] | 0 |
| CC(=O)OCC1=C(C(=O)O)N2C(=O)[C@@H](NC(=O)Cc3cccs3)[C@H]2SC1 [Cephalothin] | 24 |
